In paper PMC11239830, “Synthetic macrolides overcoming MLSBK-resistant pathogens” (Cell Discovery, 2024):
In brackets after ≈: the same amount, converted by molar mass. Read-outs that look alike come from different tables or passages of the source.

Legend:
S. pneumoniae = experiment: MIC, broth microdilution; type: cell-based, Streptococcus pneumoniae
How it was run: (§1)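 Incubation ran for 16–20 h at 37 °C after setup per Clinical and Laboratory Standards Institute microdilution procedure. Growth was then observed to assign the MIC. Assays were replicated at least three times.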

S. pyogenes = experiment: MIC, broth microdilution; type: cell-based, Streptococcus pyogenes
How it was run: as §1

[1] = system: 15B196 S. aureus ribosomes (A2058-methylated); experiment: PURE in vitro translation inhibition assay; type: biochemical, Staphylococcus aureus; conditions: mean ± SD
Experimental: (§2) To validate the in vitro activity of our compounds, we employed an in vitro reconstituted E. coli Protein synthesis Using a Recombinant Elements (PURE) translation system, substituting E. coli ribosomes with the purified S. aureus ribosomes.
(§3) 5 μL of PURE reaction mix that translates a gene encoding the Nanoluc luciferase was set up in the presence or absence of tested compounds. Protein synthesis was initiated by incubating reactions at 37 °C for 60 min and stopped by placing on ice for 5 min. Luciferase activity was quantified using the Nano-Glo luciferase assay system and read on a GloMax 20/20 luminometer (Promega, USA). For each compound, the in vitro translation inhibition assay was performed in three biological triplicates over a range of concentrations from 0.001 μM to 1000 μM. A compound-free control was used to normalize luminescence measurements. The calculated luminescence percentages were plotted against compound concentrations on a semilog scale using GraphPad Prism.

WT S. aureus ribosomes = experiment: PURE in vitro translation inhibition assay; type: biochemical, Staphylococcus aureus; conditions: mean ± SD
Experimental: as §2, §3

S. aureus = experiment: MIC, broth microdilution; type: cell-based, Staphylococcus aureus
How it was run: as §1

M. catarrhalis = experiment: MIC, broth microdilution; type: cell-based, Moraxella catarrhalis; conditions: Moraxella catarrhalis; M. catarrhalis 13L332, Ery-S; read-out: MIC
Experimental: MICs were determined by the microdilution method according to the Clinical and Laboratory Standards Institute guidelines. Briefly, the stock solution of compounds and the reference antibiotics were diluted 2-fold in sterile 96-well plates with cation-adjusted Mueller-Hinton broth, and mixed with CAMHB-containing bacteria to give a final inoculum of 5 × 10^5 CFU/mL for broth microdilution experiments. […] Finally, the 96-well plates were incubated at 37 °C for 16–20 h to observe and record the results. The lowest concentration at which no bacterial growth could be observed visually was identified as the MICs of the compounds. The assay for MICs was replicated at least three times.

[2] = CCK-8 assay for cytotoxicity; type: cell-based, human; conditions: human, HEK293T cells, HEK293T cell viability
Experimental: HepG2 cells (6 × 10^3) and HEK293T cells (4 × 10^3) were seeded into 96-well plates in 90 μL of DMEM medium containing 10% FBS per well. […] After overnight incubation, the test compound stock solution was diluted with DMEM medium containing 10% FBS to every target concentration, and 10 μL of each was added to each well. Three parallel experiments were set up for each compound. After incubation for 48 h, 10 μL of cell counting kit-8 (CCK-8) reagent was added to each well in sequence according to the manufacturer’s instructions. […] This experiment was independently repeated three times. The data were processed by GraphPad Prism.

[3] = Staphylococcus aureus, All S. aureus (24)
[4] = Staphylococcus aureus, i-MLSB S. aureus (10)

In the case of `CC[C@H]1OC(=O)[C@H](C)C(=O)[C@H](C)[C@@H](O[C@@H]2O[C@H](C)C[C@H](N(C)C)[C@H]2O)[C@](C)(OC)C[C@@H](C)C(=O)[C@H](C)[C@H]2N(CCCCn3cnc(-c4cccnc4)c3)C(=O)O[C@]12C` [telithromycin, reference compound], the MIC (S. pneumoniae; S. pneumoniae 21C315, Clinical, c-ermB) is reported as 0.12 µg/mL (≈ 0.148 µM), the MIC (S. pneumoniae; S. pneumoniae 21D016, Clinical, c-ermB, mef) is reported as 0.25 µg/mL (≈ 0.308 µM) and the MIC (S. pneumoniae; S. pneumoniae 21D020, Clinical, c-ermB, mef) is reported as 0.25 µg/mL (≈ 0.308 µM). It also gave an MIC (S. pneumoniae; S. pneumoniae 21M277, Clinical, c-ermB) of 0.12 µg/mL (≈ 0.148 µM), an MIC (S. pneumoniae; S. pneumoniae 21Q352, Clinical, i-MLSB) of 0.06 µg/mL (≈ 0.0739 µM) and an MIC (S. pneumoniae; S. pneumoniae 21Q353, Clinical, i-MLSB) of 0.03 µg/mL (≈ 0.0369 µM). It also gave an MIC (S. pneumoniae; S. pneumoniae 21W257, Clinical, c-ermB, mef) of 0.12 µg/mL (≈ 0.148 µM), an MIC (S. pneumoniae; S. pneumoniae 21X435, Clinical) of 0.016 µg/mL (≈ 0.0197 µM) and an MIC (S. pneumoniae; S. pneumoniae ATCC49619) of 0.008 µg/mL (≈ 0.00985 µM). It also gave an MIC (S. pneumoniae; S. pneumoniae PU09, mef) of 1 µg/mL (≈ 1.23 µM), an MIC (S. pneumoniae; Streptococcus pneumoniae, S. pneumoniae 05O173, c-ermB, mef, read-out: MIC) of 4 µg/mL (≈ 4.93 µM) and an MIC (S. pneumoniae; Streptococcus pneumoniae, S. pneumoniae PU09, mef, read-out: MIC) of 0.5 µg/mL (≈ 0.616 µM). It also gave an MIC (S. pyogenes; S. pyogenes 01-968, Clinical, i-ermB) of 0.016 µg/mL (≈ 0.0197 µM), an MIC (S. pyogenes; S. pyogenes 12-207, Clinical, mef) of 0.5 µg/mL (≈ 0.616 µM) and an MIC (S. pyogenes; S. pyogenes 21C303, Clinical, c-ermB) of 16 µg/mL (≈ 19.7 µM). The MIC (S. pyogenes; S. pyogenes 21D184, Clinical, c-ermB) was 8 µg/mL (≈ 9.85 µM), the MIC (S. pyogenes; S. pyogenes 21D199, Clinical, c-ermB) was 8 µg/mL (≈ 9.85 µM) and the MIC (S. pyogenes; S. pyogenes 21D200, Clinical, c-ermB) was 16 µg/mL (≈ 19.7 µM). It also gave an MIC (S. pyogenes; S. pyogenes 21K003, Clinical, mef) of 1 µg/mL (≈ 1.23 µM), an MIC (S. pyogenes; S. pyogenes 21M063, Clinical, c-ermB) of 16 µg/mL (≈ 19.7 µM) and an MIC (S. pyogenes; S. pyogenes 21W186, Clinical, c-ermTR) of 8 µg/mL (≈ 9.85 µM). The IC50 [1] was greater than 10 µM, the IC50 (WT S. aureus ribosomes) was 0.38 ± 0.13 µM and the MIC (S. aureus; S. aureus 15B196, Clinical, MRSA, c-ermB) was 128 µg/mL (≈ 158 µM). For the same compound, the MIC (S. aureus; S. aureus 15B196, c-ermB) was 32 µg/mL (≈ 39.4 µM), the MIC (S. aureus; S. aureus 21B200, Clinical, MRSA, c-ermB) was greater than 256 µg/mL and the MIC (S. aureus; S. aureus 21B207, Clinical, MRSA, c-ermB) was greater than 256 µg/mL. For the same compound, the MIC (S. aureus; S. aureus 21B212, Clinical, MSSA, i-ermC) was 0.25 µg/mL (≈ 0.308 µM), the MIC (S. aureus; S. aureus 21C173, Clinical, MSSA, i-ermC) was 0.25 µg/mL (≈ 0.308 µM) and the MIC (S. aureus; S. aureus 21C174, Clinical, MSSA, c-ermB) was greater than 256 µg/mL. For the same compound, the MIC (S. aureus; S. aureus 21C187, Clinical, MRSA, i-ermA) was 0.12 µg/mL (≈ 0.148 µM), the MIC (S. aureus; S. aureus 21D112, Clinical, MSSA, c-ermB) was greater than 256 µg/mL and the MIC (S. aureus; S. aureus 21D115, Clinical, MSSA, i-ermC) was 0.12 µg/mL (≈ 0.148 µM). For the same compound, the MIC (S. aureus; S. aureus 21F198, Clinical, MRSA, c-ermB) was greater than 256 µg/mL, the MIC (S. aureus; S. aureus 21F206, Clinical, MSSA, c-ermB) was greater than 256 µg/mL and the MIC (S. aureus; S. aureus 21F207, Clinical, MRSA, i-ermC) was 0.25 µg/mL (≈ 0.308 µM). For the same compound, the MIC (S. aureus; S. aureus 21K194, Clinical, MSSA, i-ermC) was 0.25 µg/mL (≈ 0.308 µM), the MIC (S. aureus; S. aureus 21N354, Clinical, MRSA, c-ermB) was 128 µg/mL (≈ 158 µM) and the MIC (S. aureus; S. aureus 21P191, Clinical, MSSA, c-ermC) was greater than 256 µg/mL. It also gave an MIC (S. aureus; S. aureus 21P404, Clinical, MSSA, i-ermC) of 0.5 µg/mL (≈ 0.616 µM), an MIC (S. aureus; S. aureus 21P407, Clinical, MRSA, c-ermB) greater than 256 µg/mL and an MIC (S. aureus; S. aureus 21Q253, Clinical, MRSA, c-ermB) of 16 µg/mL (≈ 19.7 µM). For the same compound, the MIC (S. aureus; S. aureus 21R216, Clinical, MSSA, c-ermC) was greater than 256 µg/mL, the MIC (S. aureus; S. aureus 21T141, Clinical, MRSA, c-ermB) was greater than 256 µg/mL and the MIC (S. aureus; S. aureus 21X388, Clinical, i-ermA (MRSA in Table S9, MSSA in Fig. 2a)) was 0.25 µg/mL (≈ 0.308 µM). The MIC (S. aureus; S. aureus 21Y223, Clinical, MRSA, i-ermC) was 0.25 µg/mL (≈ 0.308 µM), the MIC (S. aureus; S. aureus ATCC29213) was 0.25 µg/mL (≈ 0.308 µM) and the MIC (S. aureus; S. aureus PU32, Clinical, MRSA, i-ermA) was 0.12 µg/mL (≈ 0.148 µM). For the same compound, the MIC50 (S. aureus; [3]) was 16 µg/mL (≈ 19.7 µM), the MIC90 (S. aureus; [3]) was greater than 256 µg/mL and the MIC50 (S. aureus; Staphylococcus aureus, MRSA, MRSA (13)) was 128 µg/mL (≈ 158 µM). For the same compound, the MIC50 (S. aureus; Staphylococcus aureus, MSSA, MSSA (10)) was 0.5 µg/mL (≈ 0.616 µM), the MIC (S. aureus; Staphylococcus aureus, S. aureus 15B196, c-ermB, read-out: MIC) was 64 µg/mL (≈ 78.8 µM) and the MIC50 (S. aureus; Staphylococcus aureus, c-MLSB (constitutive) S. aureus (13)) was greater than 256 µg/mL. For the same compound, the MIC50 (S. aureus; [4]) was 0.25 µg/mL (≈ 0.308 µM), the MIC90 (S. aureus; [4]) was 0.25 µg/mL (≈ 0.308 µM) and the MIC90 (S. aureus; Staphylococcus aureus, MRSA (13)) was greater than 256 µg/mL. For the same compound, the MIC90 (S. aureus; Staphylococcus aureus, MSSA (10)) was greater than 256 µg/mL, the MIC (M. catarrhalis) was 0.25 µg/mL (≈ 0.308 µM) and the CC50 at 48 h [2] was greater than 100 µM.
